Article PMC9045483 (RSC Advances, 2022)

Experiments:
HCT116 = assay: In vitro cytotoxic activity, MTT colorimetric assay, HCT116; format: cell-based; conditions: Homo sapiens, HCT-116, read-out: IC50 HCT116
HepG2 = assay: In vitro cytotoxic activity, MTT colorimetric assay, HepG2; format: cell-based; conditions: Homo sapiens, HepG2, read-out: IC50 HepG2
MCF-7 = assay: In vitro cytotoxic activity, MTT colorimetric assay, MCF-7; format: cell-based; conditions: Homo sapiens, MCF7, read-out: IC50 MCF-7
A549 = assay: In vitro cytotoxic activity, MTT colorimetric assay, A549; format: cell-based; conditions: Homo sapiens, A549, read-out: IC50 A549
EGFR^T790M = EGFR^T790M (Homo sapiens, UniProt P00533, T790M); assay: EGFR^T790M kinase inhibitory assay; format: biochemical
EGFR^T790M, sequence (P00533 25-1210 T790M): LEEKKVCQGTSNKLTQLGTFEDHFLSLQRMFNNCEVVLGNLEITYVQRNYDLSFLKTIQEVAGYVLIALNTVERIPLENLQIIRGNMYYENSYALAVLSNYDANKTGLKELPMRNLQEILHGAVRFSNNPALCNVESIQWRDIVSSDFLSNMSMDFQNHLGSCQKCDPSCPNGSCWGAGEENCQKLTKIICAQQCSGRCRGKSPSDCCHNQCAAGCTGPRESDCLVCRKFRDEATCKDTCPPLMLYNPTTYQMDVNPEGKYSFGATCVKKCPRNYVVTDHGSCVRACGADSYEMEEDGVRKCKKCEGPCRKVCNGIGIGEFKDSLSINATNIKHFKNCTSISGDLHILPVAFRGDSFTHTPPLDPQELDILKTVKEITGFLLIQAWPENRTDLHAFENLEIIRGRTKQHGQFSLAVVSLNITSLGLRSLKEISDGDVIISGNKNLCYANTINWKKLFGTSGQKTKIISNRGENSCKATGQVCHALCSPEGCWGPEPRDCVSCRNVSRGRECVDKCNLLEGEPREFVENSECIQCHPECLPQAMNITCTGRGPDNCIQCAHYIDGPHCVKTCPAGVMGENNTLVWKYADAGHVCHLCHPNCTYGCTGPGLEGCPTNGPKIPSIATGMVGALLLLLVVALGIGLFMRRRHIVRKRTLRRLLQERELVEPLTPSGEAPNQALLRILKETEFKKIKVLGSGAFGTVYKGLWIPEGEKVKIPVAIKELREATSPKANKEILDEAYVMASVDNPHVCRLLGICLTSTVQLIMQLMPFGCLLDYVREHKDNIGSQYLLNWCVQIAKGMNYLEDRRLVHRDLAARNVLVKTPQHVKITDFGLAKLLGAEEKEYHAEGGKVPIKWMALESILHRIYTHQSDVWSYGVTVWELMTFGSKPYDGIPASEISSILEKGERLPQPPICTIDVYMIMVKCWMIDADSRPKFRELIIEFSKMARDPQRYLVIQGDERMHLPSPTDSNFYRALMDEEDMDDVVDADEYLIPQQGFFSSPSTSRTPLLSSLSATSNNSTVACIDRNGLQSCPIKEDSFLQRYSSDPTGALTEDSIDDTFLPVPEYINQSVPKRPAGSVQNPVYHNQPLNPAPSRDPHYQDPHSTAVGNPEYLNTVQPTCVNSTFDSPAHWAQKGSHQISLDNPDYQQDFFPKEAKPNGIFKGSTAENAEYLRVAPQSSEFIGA

VEGFR-2 = VEGFR-2 (Homo sapiens, UniProt P35968); assay: biochemical
VEGFR-2, sequence (P35968 20-1356): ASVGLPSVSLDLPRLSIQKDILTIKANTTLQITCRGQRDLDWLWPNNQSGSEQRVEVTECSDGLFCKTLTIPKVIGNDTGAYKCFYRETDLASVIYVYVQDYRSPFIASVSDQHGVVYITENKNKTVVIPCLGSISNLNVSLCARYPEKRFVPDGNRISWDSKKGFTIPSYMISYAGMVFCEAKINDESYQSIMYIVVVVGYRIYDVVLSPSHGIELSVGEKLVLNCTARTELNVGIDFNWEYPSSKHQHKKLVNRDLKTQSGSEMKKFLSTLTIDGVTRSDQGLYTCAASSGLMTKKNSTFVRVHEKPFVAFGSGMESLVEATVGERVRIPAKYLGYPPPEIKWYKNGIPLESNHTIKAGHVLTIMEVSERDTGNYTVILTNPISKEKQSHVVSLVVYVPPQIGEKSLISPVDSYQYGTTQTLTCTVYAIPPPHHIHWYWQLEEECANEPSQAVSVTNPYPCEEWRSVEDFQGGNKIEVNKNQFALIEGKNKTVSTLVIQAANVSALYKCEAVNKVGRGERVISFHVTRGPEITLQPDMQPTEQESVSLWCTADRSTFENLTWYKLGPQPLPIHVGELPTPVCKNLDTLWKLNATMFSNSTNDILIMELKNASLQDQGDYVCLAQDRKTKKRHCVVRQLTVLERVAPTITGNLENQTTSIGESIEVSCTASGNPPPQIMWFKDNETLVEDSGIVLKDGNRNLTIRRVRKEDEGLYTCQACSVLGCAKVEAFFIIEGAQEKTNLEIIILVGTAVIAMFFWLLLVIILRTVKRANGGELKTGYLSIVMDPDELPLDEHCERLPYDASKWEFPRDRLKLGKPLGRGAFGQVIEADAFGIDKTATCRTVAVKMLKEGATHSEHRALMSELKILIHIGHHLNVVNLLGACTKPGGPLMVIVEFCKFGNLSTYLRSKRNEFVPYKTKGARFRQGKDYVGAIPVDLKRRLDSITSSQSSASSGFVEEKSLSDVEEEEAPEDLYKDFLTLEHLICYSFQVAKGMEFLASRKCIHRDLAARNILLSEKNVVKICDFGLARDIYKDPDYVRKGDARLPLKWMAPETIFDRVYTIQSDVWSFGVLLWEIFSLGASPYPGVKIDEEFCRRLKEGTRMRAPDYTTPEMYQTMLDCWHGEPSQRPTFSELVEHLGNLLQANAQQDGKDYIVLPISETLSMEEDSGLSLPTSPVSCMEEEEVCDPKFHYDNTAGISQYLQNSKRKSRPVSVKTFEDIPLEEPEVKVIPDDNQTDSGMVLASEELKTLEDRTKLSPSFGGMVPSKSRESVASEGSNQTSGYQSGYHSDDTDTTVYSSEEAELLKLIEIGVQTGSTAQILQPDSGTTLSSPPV

IC50 (EGFR^T790M) [µM]	IC50 (VEGFR-2) [µM]	Compound	IC50 (HCT116) [µM]	IC50 (HepG2) [µM]	IC50 (MCF-7) [µM]	IC50 (A549) [µM]
–	–	O=C1NC(=O)C(=Cc2ccco2)S1 [Compound 3, 5-(furan-2-ylmethylene)thiazolidine-2,4-dione]	58.2	–	–	–
–	–	O=C(CN1C(=O)SC(=Cc2cccs2)C1=O)Nc1ccccc1 [Compound 4a, 2-[2,4-Dioxo-5-(thiophen-2-ylmethylene)thiazolidin-3-yl]-N-phenylacetamide]	58.2 ± 0.7	52.1 ± 5.2	63.6 ± 3.8	51 ± 2.5
–	–	O=C(CN1C(=O)SC(=Cc2cccs2)C1=O)Nc1ccc(Cl)cc1 [Compound 4b, N-(4-Chlorophenyl)-2-[2,4-dioxo-5-(thiophen-2-ylmethylene)thiazolidin-3-yl]acetamide]	38.4 ± 3.9	35.4 ± 5.1	36.9 ± 1.3	36.1 ± 1.9
–	–	O=C(CN1C(=O)SC(=Cc2cccs2)C1=O)Nc1ccc(F)cc1 [Compound 4c, 2-[2,4-Dioxo-5-(thiophen-2-ylmethylene)thiazolidin-3-yl]-N-(4-fluorophenyl)acetamide]	42.5 ± 3.9	34.2 ± 5.1	39 ± 1.3	38.3 ± 1.9
0.42	0.255	O=C(CN1C(=O)SC(=Cc2cccs2)C1=O)Nc1ccc(Br)cc1 [Compound 4d, N-(4-Bromophenyl)-2-[2,4-dioxo-5-(thiophen-2-ylmethylene)thiazolidin-3-yl]acetamide]	16.6 ± 3.9	13.5 ± 3.9	22.7 ± 3.9	19 ± 3.9
–	–	Cc1ccc(NC(=O)CN2C(=O)SC(=Cc3cccs3)C2=O)cc1 [Compound 4e, 2-[2,4-Dioxo-5-(thiophen-2-ylmethylene)thiazolidin-3-yl]-N-(p-tolyl)acetamide]	21.3 ± 3.9	24.5 ± 3.9	25.2 ± 3.9	34 ± 3.9
0.36	–	COc1ccc(NC(=O)CN2C(=O)SC(=Cc3cccs3)C2=O)cc1 [Compound 4f, 2-[2,4-Dioxo-5-(thiophen-2-ylmethylene)thiazolidin-3-yl]-N-(4-methoxyphenyl)acetamide]	17.7 ± 3.9	10.2 ± 3.9	22.3 ± 3.9	22.7 ± 3.9
0.23	–	O=C(CN1C(=O)SC(=Cc2cccs2)C1=O)Nc1ccc(C(=O)O)cc1 [Compound 4g, 4-{2-[2,4-Dioxo-5-(thiophen-2-ylmethylene)thiazolidin-3-yl]acetamido}benzoic acid]	11.2 ± 3.9	6.22 ± 3.9	10.7 ± 3.9	12.9 ± 3.9
–	–	O=C(CN1C(=O)SC(=Cc2ccco2)C1=O)Nc1ccccc1 [Compound 5a, 2-[5-(Furan-2-ylmethylene)-2,4-dioxothiazolidin-3-yl]-N-phenylacetamide]	48.3 ± 0.7	52.1 ± 5.2	59.6 ± 3.8	53.2 ± 2.5
–	–	O=C(CN1C(=O)SC(=Cc2ccco2)C1=O)Nc1ccc(Cl)cc1 [Compound 5b, N-(4-Chlorophenyl)-2-[5-(furan-2-ylmethylene)-2,4-dioxothiazolidin-3-yl]acetamide]	28.2 ± 3.9	23.8 ± 3.9	25.7 ± 3.9	36.2 ± 3.9
–	–	O=C(CN1C(=O)SC(=Cc2ccco2)C1=O)Nc1ccc(F)cc1 [Compound 5c, N-(4-Fluorophenyl)-2-[5-(furan-2-ylmethylene)-2,4-dioxothiazolidin-3-yl]acetamide]	35.7 ± 3.9	24.1 ± 2.5	28.6 ± 1.3	35.4 ± 1.9
–	0.276	Cc1ccc(NC(=O)CN2C(=O)SC(=Cc3ccco3)C2=O)cc1 [Compound 5d, 2-[5-(Furan-2-ylmethylene)-2,4-dioxothiazolidin-3-yl]-N-(p-tolyl)acetamide]	26.4 ± 1.4	23.6 ± 3.9	25.3 ± 4.5	29.7 ± 4.1
0.41	0.263	CC(C)c1ccc(NC(=O)CN2C(=O)SC(=Cc3ccco3)C2=O)cc1 [Compound 5e, 2-[5-(Furan-2-ylmethylene)-2,4-dioxothiazolidin-3-yl]-N-(4-isopropylphenyl)acetamide]	10.7 ± 3.9	23.8 ± 3.9	14.5 ± 3.9	32.9 ± 3.9
0.35	0.247	COc1ccc(NC(=O)CN2C(=O)SC(=Cc3ccco3)C2=O)cc1 [Compound 5f, 2-[5-(Furan-2-ylmethylene)-2,4-dioxothiazolidin-3-yl]-N-(4-methoxyphenyl)acetamide]	15.7 ± 3.9	11 ± 3.9	18.5 ± 3.9	13 ± 3.9
–	–	O=C(CN1C(=O)SC(=Cc2ccco2)C1=O)Nc1ccc(C(=O)O)cc1 [Compound 5g, 4-{2-[5-(Furan-2-ylmethylene)-2,4-dioxothiazolidin-3-yl]acetamido}benzoic acid]	9.04 ± 3.9	3.86 ± 3.9	10.7 ± 3.9	7.55 ± 3.9
–	–	CNC(=O)c1cc(Oc2ccc(NC(=O)Nc3ccc(Cl)c(C(F)(F)F)c3)cc2)ccn1 [Sorafenib, sorafenib, reference compound]	–	4 ± 0.33	–	–
